# Assay results from PubChem BioAssay AID328 (DTP/NCI, 2004).
# Several values for one entry are separate records, joined by “and”; a condition that tells them apart may be missing. Equal values may be shown once. Inconclusive results and toxic doses are left out.
# System: BDF1 mice, P388 leukemia ip, median survival T/C
# Test: NCI In Vivo Anticancer Drug Screen. Data for tumor model P388 Leukemia (intraperitoneal) in B6D2F1 (BDF1) mice
# Settings: endpoint: median survival time, higher = longer survival
# Method in brief: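 T/C = treated-group survival ÷ vehicle-control survival; tumour transplanted into mice before dosing.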
# [1] = dose: 100.0 mg/kg/injection, schedule: Q04DX003 (ip), vehicle: Klucel (hydroxypropylcellulose) (HPC)
# [2] = dose: 200.0 mg/kg/injection, schedule: Q04DX003 (ip), vehicle: Klucel (hydroxypropylcellulose) (HPC)
# [3] = dose: 400.0 mg/kg/injection, schedule: Q04DX003 (ip), vehicle: Klucel (hydroxypropylcellulose) (HPC)
# [4] = dose: 100.0 mg/kg/injection, schedule: Q01DX009 (ip), vehicle: saline with Tween-80
# [5] = dose: 100.0 mg/kg/injection, schedule: Q04DX003 (ip), vehicle: saline with Tween-80
# [6] = dose: 200.0 mg/kg/injection, schedule: Q01DX009 (ip), vehicle: saline with Tween-80
# [7] = dose: 200.0 mg/kg/injection, schedule: Q04DX003 (ip), vehicle: saline with Tween-80
# [8] = dose: 400.0 mg/kg/injection, schedule: Q04DX003 (ip), vehicle: saline with Tween-80
# [9] = dose: 50.0 mg/kg/injection, schedule: Q01DX009 (ip), vehicle: saline with Tween-80
# [10] = dose: 12.5 mg/kg/injection, schedule: Q01DX009 (ip), vehicle: Klucel (hydroxypropylcellulose) (HPC)
# [11] = dose: 25.0 mg/kg/injection, schedule: Q01DX009 (ip), vehicle: Klucel (hydroxypropylcellulose) (HPC)
# [12] = dose: 100.0 mg/kg/injection, schedule: Q01DX009 (ip), vehicle: Klucel (hydroxypropylcellulose) (HPC)
# [13] = dose: 200.0 mg/kg/injection, schedule: Q01DX009 (ip), vehicle: Klucel (hydroxypropylcellulose) (HPC)
# [14] = dose: 400.0 mg/kg/injection, schedule: Q01DX009 (ip), vehicle: Klucel (hydroxypropylcellulose) (HPC)
# [15] = dose: 25.0 mg/kg/injection, schedule: Q04DX003 (ip), vehicle: saline with Tween-80
# [16] = dose: 50.0 mg/kg/injection, schedule: Q01DX009 (ip), vehicle: saline
smiles,measurement,setting,value
C[C@@H]1C[C@@]2(C)[C@@H](CC[C@@H]3[C@@H]2CC[C@]2(C)[C@@H](O)CC[C@@H]32)C[C@@H]1O,T/C,"dose: 220.0 mg/kg/injection, schedule: Q01DX010 (sc), vehicle: steriod suspending solution",100 % of control
same,T/C,"dose: 440.0 mg/kg/injection, schedule: Q01DX010 (sc), vehicle: steriod suspending solution",115 % of control
O=C(O)Cc1ccc(N=Nc2c(O)c(C(=O)O)cc3ccccc23)cc1,T/C,[1],111 % of control
same,T/C,[2],111 % of control
same,T/C,[3],100 % of control
COc1ccc2c(c1OC)CN(C)CCc1cc3c(cc1C(=O)C2)OCO3,T/C,"dose: 18.75 mg/kg/injection, schedule: Q01DX009 (ip), vehicle: saline with Tween-80",95 % of control
same,T/C,"dose: 37.5 mg/kg/injection, schedule: Q01DX009 (ip), vehicle: saline with Tween-80",95 % of control
CC(=O)O[C@H]1CC[C@H]2[C@@H]3[C@H](C)CC4=CC(=O)CCC4[C@H]3CC[C@]12C (stereo partly drawn),T/C,[4],95 % of control
same,T/C,[5],100 % of control
same,T/C,[6],90 % of control
same,T/C,[7],95 % of control
same,T/C,"dose: 400.0 mg/kg/injection, schedule: Q01DX009 (ip), vehicle: saline with Tween-80",100 % of control
same,T/C,[8],100 % of control
CCN(CC)CCCNc1cccc2c(C)cc(OC)nc12,T/C,[9],97 % of control
same,T/C,[4],114 % of control
O=[N+]([O-])c1ccc(SC2=NCCN2)c(Cl)c1,T/C,[9],94 % of control
same,T/C,[4],103 % of control
same,T/C,[6],112 % of control
COC(=O)C1=COC2OC3CC1C2C(C)O3 (stereo not drawn),T/C,[10],99 % of control
same,T/C,[11],98 % of control
same,T/C,"dose: 50.0 mg/kg/injection, schedule: Q01DX009 (ip), vehicle: Klucel (hydroxypropylcellulose) (HPC)",115 % of control
Cc1ccc(S(=O)(=O)N(C)CCC#N)cc1,T/C,[12],90 % of control
same,T/C,[1],90 % of control
same,T/C,[13],100 % of control
same,T/C,[2],100 % of control
same,T/C,[14],110 % of control
same,T/C,[3],109 % of control
CC1=C(C#N)C(C)(C)C(C#N)=C(C)N1C,T/C,"dose: 25.0 mg/kg/injection, schedule: Q01DX009 (ip), vehicle: distilled water + Tween-80",88 % of control
same,T/C,"dose: 50.0 mg/kg/injection, schedule: Q01DX009 (ip), vehicle: distilled water + Tween-80",100 % of control
same,T/C,"dose: 100.0 mg/kg/injection, schedule: Q01DX009 (ip), vehicle: distilled water + Tween-80",104 % of control
CCCCCCC1CCC(N)CC1 (stereo not drawn),T/C,[10],97 % of control
same,T/C,[11],101 % of control
CN(C)c1ccc(/C=C/c2ccc3ccccc3n2)cc1,T/C,[15],86 % of control
same,T/C,"dose: 50.0 mg/kg/injection, schedule: Q04DX003 (ip), vehicle: saline with Tween-80",86 % of control
same,T/C,[5],86 % of control
COc1ccc(S(=O)(=O)NCCC#N)cc1NC(C)=O,T/C,"dose: 100.0 mg/kg/injection, schedule: Q01DX001 (ip), vehicle: saline sonified",100 % of control
same,T/C,"dose: 200.0 mg/kg/injection, schedule: Q01DX001 (ip), vehicle: saline sonified",100 % of control
same,T/C,"dose: 400.0 mg/kg/injection, schedule: Q01DX001 (ip), vehicle: saline sonified",100 % of control
CC(=O)Nc1cc(NC(C)=O)cc([N+](=O)[O-])c1,T/C,"dose: 25.0 mg/kg/injection, schedule: Q04DX003 (ip), vehicle: saline",110 % of control
same,T/C,"dose: 50.0 mg/kg/injection, schedule: Q04DX003 (ip), vehicle: saline",106 % of control
same,T/C,"dose: 100.0 mg/kg/injection, schedule: Q04DX003 (ip), vehicle: saline",100 % of control
same,T/C,"dose: 200.0 mg/kg/injection, schedule: Q04DX003 (ip), vehicle: saline",107 % of control
same,T/C,"dose: 400.0 mg/kg/injection, schedule: Q04DX003 (ip), vehicle: saline",103 % of control
NC(CO)C(=O)O.[Cl-].[Cl-].[Cl-].[Cl-].[Pt+2] (stereo not drawn),T/C,[16],116 % of control
C1CC[N-]CC1.C1CC[N-]CC1.C1CC[N-]CC1.[Cl][Rh]([Cl])[Cl],T/C,"dose: 12.5 mg/kg/injection, schedule: Q01DX009 (ip), vehicle: saline",156 % of control
same,T/C,"dose: 25.0 mg/kg/injection, schedule: Q01DX009 (ip), vehicle: saline",157 % of control
same,T/C,[16],161 % of control and 175 % of control
CS(=O)(=O)OC[C@@H](O)[C@@H](O)COS(C)(=O)=O,T/C,[16],116 % of control
same,T/C,"dose: 100.0 mg/kg/injection, schedule: Q01DX009 (ip), vehicle: saline",107 % of control
c1cc[c]([Sn]([O][Sn]([c]2ccccc2)([c]2ccccc2)[c]2ccccc2)([c]2ccccc2)[c]2ccccc2)cc1,T/C,[15],95 % of control
CC1(C)SC(C)(C)N(C=O)C1C(=O)O (stereo not drawn),T/C,[12],90 % of control
same,T/C,[1],91 % of control
same,T/C,[13],109 % of control
same,T/C,[2],95 % of control
same,T/C,[14],90 % of control
same,T/C,[3],91 % of control
CC1(C)C2CCC1(C)C(OC(=O)c1ccc([N+](=O)[O-])cc1)C2OC(=O)c1ccc([N+](=O)[O-])cc1 (stereo not drawn),T/C,"dose: 75.0 mg/kg/injection, schedule: Q04DX003 (ip), vehicle: other",100 % of control
same,T/C,"dose: 150.0 mg/kg/injection, schedule: Q04DX003 (ip), vehicle: other",91 % of control
same,T/C,"dose: 300.0 mg/kg/injection, schedule: Q04DX003 (ip), vehicle: other",91 % of control
O=C(Nc1cc(Cl)ccc1Cl)c1ccccc1Cl,T/C,[12],100 % of control
same,T/C,[1],104 % of control
same,T/C,[13],113 % of control
same,T/C,[2],104 % of control
same,T/C,[3],100 % of control
Cc1cc(C)cc(C(C)C)c1,T/C,[9],101 % of control
same,T/C,[4],116 % of control
same,T/C,[6],122 % of control
C(=N/c1ncn[nH]1)/Nc1ncn[nH]1,T/C,"dose: 12.5 mg/kg/injection, schedule: Q01DX009 (ip), vehicle: suspension in saline",100 % of control
same,T/C,"dose: 25.0 mg/kg/injection, schedule: Q01DX009 (ip), vehicle: suspension in saline",113 % of control
same,T/C,"dose: 50.0 mg/kg/injection, schedule: Q01DX009 (ip), vehicle: suspension in saline",118 % of control
same,T/C,"dose: 100.0 mg/kg/injection, schedule: Q01DX009 (ip), vehicle: suspension in saline",96 % of control
Cc1ccc(NC(=O)Oc2ccc(Br)cc2Br)c([N+](=O)[O-])c1,T/C,[4],122 % of control
O=C(O)CCSSc1ccc([N+](=O)[O-])cc1[N+](=O)[O-],T/C,"dose: 6.25 mg/kg/injection, schedule: Q01DX009 (ip), vehicle: Klucel (hydroxypropylcellulose) (HPC)",95 % of control
same,T/C,"dose: 6.25 mg/kg/injection, schedule: Q04DX003 (ip), vehicle: Klucel (hydroxypropylcellulose) (HPC)",100 % of control
same,T/C,[10],100 % of control
same,T/C,"dose: 12.5 mg/kg/injection, schedule: Q04DX003 (ip), vehicle: Klucel (hydroxypropylcellulose) (HPC)",109 % of control
same,T/C,[11],104 % of control
same,T/C,"dose: 25.0 mg/kg/injection, schedule: Q04DX003 (ip), vehicle: Klucel (hydroxypropylcellulose) (HPC)",109 % of control
N=C1SCc2ccc3ccccc3c21,T/C,[9],104 % of control
same,T/C,[4],106 % of control
CC(=O)OCCCl,T/C,"dose: 50.0 mg/kg/injection, schedule: Q04DX003 (ip), vehicle: suspension in saline",99 % of control
same,T/C,"dose: 100.0 mg/kg/injection, schedule: Q04DX003 (ip), vehicle: suspension in saline",103 % of control
same,T/C,"dose: 200.0 mg/kg/injection, schedule: Q04DX003 (ip), vehicle: suspension in saline",103 % of control
same,T/C,"dose: 400.0 mg/kg/injection, schedule: Q04DX003 (ip), vehicle: suspension in saline",114 % of control
O=C1c2ccccc2C(=O)N1C/C(=N/O)c1ccc(C(F)(F)F)cc1,T/C,"dose: 50.0 mg/kg/injection, schedule: Q01DX001 (ip), vehicle: Klucel (hydroxypropylcellulose) (HPC)",96 % of control
same,T/C,"dose: 100.0 mg/kg/injection, schedule: Q01DX001 (ip), vehicle: Klucel (hydroxypropylcellulose) (HPC)",96 % of control
same,T/C,"dose: 200.0 mg/kg/injection, schedule: Q01DX001 (ip), vehicle: Klucel (hydroxypropylcellulose) (HPC)",96 % of control
O=C1C(Cl)=CC(=NS(=O)(=O)c2ccccc2)C=C1Cl,T/C,"dose: 3.13 mg/kg/injection, schedule: Q04DX003 (ip), vehicle: saline with Tween-80",110 % of control
same,T/C,"dose: 6.25 mg/kg/injection, schedule: Q04DX003 (ip), vehicle: saline with Tween-80",110 % of control
same,T/C,"dose: 12.5 mg/kg/injection, schedule: Q04DX003 (ip), vehicle: saline with Tween-80",110 % of control
COc1cc(C(Cc2ccnc3ccccc23)Cc2ccnc3ccccc23)ccc1N(C)C,T/C,[5],91 % of control
same,T/C,[7],104 % of control
same,T/C,[8],115 % of control
